Test system: hepatocytes
Test: Seq-Well scRNA-Seq of hepatocytes after APAP overdose (signature scores, DEG vs untreated)
Format: in vivo, mouse
Settings: APAP vs UT

CC(=O)Nc1ccc(O)cc1 [APAP, acetaminophen]
Ndufb4 logFC: −0.4537 | Ndufb6 logFC: −0.5077 | Ndufb9 logFC: −0.5038 | Ndufb11 logFC: −0.5097 | Ndufs6 logFC: −0.5379 | Nedd4 logFC: 0.3774 | Nit2 logFC: −0.4859 | Nolc1 logFC: 0.4722 | Nop56 logFC: 0.2657 | Nr5a2 logFC: 0.322 | Nrp1 logFC: 0.3608 | Oaz1 logFC: −0.4185 | Orm2 logFC: 0.2715 | Pah logFC: −0.5221 | Park7 logFC: −0.2602 | Pdcd4 logFC: 0.4882 | Pdia4 logFC: 0.4882 | Pdia6 logFC: −0.39 | Pemt logFC: −0.5512 | Pfkfb2 logFC: 0.29 | Picalm logFC: 0.7545 | Pik3c2a logFC: 0.3249 | Plec logFC: 0.4675 | Plg logFC: 0.2617 | Ppan logFC: 0.2724 | Ppib logFC: −0.5897 | Ppm1k logFC: −0.5584 | Ppp1r3b logFC: −0.4027 | Ppp2r5a logFC: −0.2605 | Prg4 logFC: 0.4306 | Prkd3 logFC: 0.3665 | Pten logFC: 0.3559 | Ptms logFC: 0.2678 | Ptpn1 logFC: 0.4163 | Ptpn12 logFC: 0.3342 | Qdpr logFC: −0.5236 | Qsox1 logFC: 0.3424 | Rab1 logFC: 0.3526 | Rad54l2 logFC: 0.3887 | Ranbp2 logFC: 0.5985 | Rarres2 logFC: −0.5522 | Rdh16 logFC: 0.2692 | Rgs2 logFC: 0.3957 | Rnd3 logFC: 0.3655 | Rock2 logFC: 0.5941 | Rora logFC: 0.6444 | Rpl32 logFC: −0.5322 | Rpl36a1 logFC: −0.4755 | Rplp1 logFC: −0.5047 | Rpn1 logFC: 0.4124 | Rps2 logFC: −0.3879 | Rrbp1 logFC: 0.3069 | S100a1 logFC: −0.3762 | Saa4 logFC: −0.571 | Sar1b logFC: −0.3176 | Sat1 logFC: 0.6887 | Sc5d logFC: −0.5009 | Sdad1 logFC: 0.3124 | Sdc3 logFC: 0.3598 | Sdc4 logFC: 0.6196 | Sdhd logFC: −0.3353 | Sds logFC: −0.407 | Sec61a1 logFC: 0.3139 | Selenbp1 logFC: −0.4937 | Serp1 logFC: 0.3124 | Serpina3c logFC: −0.4725 | Sfxn1 logFC: 0.3049 | Slc2a2 logFC: −0.3123 | Slc3a1 logFC: 0.341 | Slc10a2 logFC: 0.299 | Slc20a1 logFC: 0.3572 | Slc37a4 logFC: 0.2683 | Slc38a3 logFC: −0.4098 | Slc38a4 logFC: 0.2637 | Slco1a1 logFC: −0.3628 | Son logFC: 0.5429 | Sorl1 logFC: 0.3067 | Sparcl1 logFC: −0.2536 | Spcs3 logFC: 0.3942 | Spred1 logFC: 0.3884 | Sqstm1 logFC: 0.7432 | Ssr1 logFC: 0.3278 | Ssr4 logFC: −0.5076 | St3gal1 logFC: 0.5287 | Stard4 logFC: 0.3515 | Stard10 logFC: −0.3383 | Stat3 logFC: 0.7154 | Stk40 logFC: 0.5364 | Tacc2 logFC: 0.3293 | Tatdn2 logFC: 0.3733 | Tbc1d15 logFC: 0.4886 | Tcerg1 logFC: 0.3575 | Thrsp logFC: −0.725 | Tiparp logFC: 0.5456 | Tjp2 logFC: 0.4115 | Tlcd2 logFC: −0.5945 | Tm4sf4 logFC: 0.5126 | Tmed7 logFC: 0.3868 | Tmem30a logFC: 0.3328 | Tmem87b logFC: 0.4344 | Tmem106b logFC: 0.2802 | Tmem256 logFC: −0.5185 | Tnfrsf1a logFC: 0.5996 | Tra2a logFC: 0.7123 | Tram1 logFC: 0.4111 | Trip12 logFC: 0.3283 | Tsc22d2 logFC: 0.3911 | Tsku logFC: 0.3676 | Tsr1 logFC: 0.3603 | Ttc39c logFC: −0.6363 | Tubb2a logFC: 0.7494 | Ubxn4 logFC: 0.2503 | Ucp2 logFC: 0.2612 | Ugdh logFC: 0.6331 | Uggt1 logFC: 0.2845 | Ugt2a3 logFC: −0.3334 | Uox logFC: −0.5531 | Upb1 logFC: −0.4187 | Upp2 logFC: −0.6903 | Uqcr10 logFC: −0.4519 | Uqcr11 logFC: −0.6031 | Uqcrh logFC: −0.4292 | Usmg5 logFC: −0.4305 | Uso1 logFC: 0.3881 | Usp4 logFC: 0.3247 | Usp9x logFC: 0.4076 | Vkorc1 logFC: −0.4042 | Vsig4 logFC: 0.4833 | Wfdc17 logFC: 0.4867 | Xbp1 logFC: 0.6032 | Ywhag logFC: 0.5824 | Zfp683 logFC: −0.4217 | mmu-mir-6236 logFC: 0.7875 | mt-Atp6 logFC: −0.5737 | mt-Nd6 logFC: −0.4779 | mt-Tm logFC: 0.2847 | mt-Tq logFC: 0.2879 | 15-Sep logFC (composite DEG): −0.4092 | 0610005C13Rik logFC (composite DEG): −0.4251 | 0610011F06Rik logFC (composite DEG): −0.3037 | 1100001G20Rik logFC (composite DEG): −0.8516 | 1110001J03Rik logFC (composite DEG): −0.4328 | 1500011K16Rik logFC (composite DEG): −0.3296 | 1500017E21Rik logFC (composite DEG): −0.461 | 1700017B05Rik logFC (composite DEG): 0.3307 | 1810022K09Rik logFC (composite DEG): −0.3001 | 2010003K11Rik logFC (composite DEG): 0.5884 | 2010107E04Rik logFC (composite DEG): −0.3182 | 2410015M20Rik logFC (composite DEG): −0.4021 | 2810007J24Rik logFC (composite DEG): −0.9143 | AW112010 logFC (composite DEG): −0.2981 | Aadat logFC (composite DEG): −0.3186 | Aass logFC (composite DEG): 0.4775 | Abca6 logFC (composite DEG): 0.3328 | Abcb4 logFC (composite DEG): 0.4947 | Abcc3 logFC (composite DEG): 0.3638 | Abcd2 logFC (composite DEG): 0.2851 | Abcd3 logFC (composite DEG): −0.2718 | Abhd14b logFC (composite DEG): −0.3937 | Acad11 logFC (composite DEG): 0.3571 | Acadl logFC (composite DEG): 0.3162 | Acads logFC (composite DEG): −0.3242 | Acat1 logFC (composite DEG): 0.3689 | Acbd5 logFC (composite DEG): −0.3952 | Acly logFC (composite DEG): 0.3288 | Aco2 logFC (composite DEG): 0.2859 | Acot1 logFC (composite DEG): 0.3078 | Acot12 logFC (composite DEG): 0.3078 | Acsl1 logFC (composite DEG): −0.3703 | Acsm1 logFC (composite DEG): −0.3692 | Actb logFC (composite DEG): 1.06 | Actn4 logFC (composite DEG): 0.3124 | Acy3 logFC (composite DEG): −0.3137 | Adamts1 logFC (composite DEG): 0.2826 | Adck3 logFC (composite DEG): −0.8761 | Adh1 logFC (composite DEG): −1.255 | Adtrp logFC (composite DEG): −0.3664 | Aff4 logFC (composite DEG): 0.6163 | Agpat2 logFC (composite DEG): −0.2982 | Agpat6 logFC (composite DEG): 0.3963 | Agpat9 logFC (composite DEG): 0.327 | Agxt logFC (composite DEG): −0.2584 | Ahcy logFC (composite DEG): −0.563 | Ak2 logFC (composite DEG): −0.3451 | Akap11 logFC (composite DEG): 0.3464 | Akap13 logFC (composite DEG): 0.4953 | Akr1a1 logFC (composite DEG): −0.3269 | Akr1c19 logFC (composite DEG): −0.2727 | Akr1d1 logFC (composite DEG): 0.361 | Alad logFC (composite DEG): −0.4206 | Aldh4a1 logFC (composite DEG): −0.2907 | Aldh9a1 logFC (composite DEG): 0.4159 | Aldob logFC (composite DEG): 0.3655 | Amacr logFC (composite DEG): −0.4136 | Amy1 logFC (composite DEG): 0.4327 | Anapc13 logFC (composite DEG): −0.3642 | Ankrd11 logFC (composite DEG): 0.4156 | Anp32a logFC (composite DEG): −0.317 | Apc logFC (composite DEG): 0.6067 | Apcs logFC (composite DEG): 0.7584 | Aplp2 logFC (composite DEG): 0.3394 | Apoa4 logFC (composite DEG): 1.368

From patent US20230053540A1, “TREATMENT OF LIVER INJURY” (Massachusetts Institute of Technology, priority 2019, published 2023)
